This note sets out measurements from patent US20250368614A1, “COMPOUNDS AND METHODS FOR YAP/TEAD MODULATION AND INDICATIONS THEREFOR” (OPNA BIO SA, priority 2023, published 2025).

For this test, the system named is TEAD-dependent transcription (12XGTIIC TEAD response element luciferase reporter) in MSTO-211H cells. Kind of test: TEAD-dependent transcription cell-based luciferase reporter assay in MSTO-211H+12XGTIIC cells. To be noted: Homo sapiens; MSTO-211H+12XGTIIC reporter cells, 24 hours compound incubation, luminescence normalized to cell viability signal, geometric mean; read-out: MSTO-211H GMean IC50 (uM) Cell Assay Reporter Cell Variant: TEAD. An outline of the steps:
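Stable 12×GTIIC-luciferase clone seeded 1×10^4 cells/well overnight, then exposed to compound serial dilutions for 24 h at 37° C. ONE-Glo luminescence normalized to CellTiter-Fluor viability signal; % inhibition relative to DMSO and 20 μM K-975 controls. IC50 by nonlinear regression.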
(In a reporter assay the amount or activity of a reporter protein is the signal.)
A word on the IC50: it is the concentration needed to halve the response being measured. In the case of `O=C1NC(=O)C(CC(=O)N2CCc3c(cccc3Nc3ccc(C(F)(F)F)cc3F)C2)N1` (centres unmarked) [Compound O-0196, 5-(2-(5-((2-fluoro-4-(trifluoromethyl)phenyl)amino)-3,4-dihydroisoquinolin-2(1H)-yl)-2-oxoethyl)imidazolidine-2,4-dione], the IC50 fell in the range of 0.001 to 10 µM.
The value for `O=C1NC(=O)C(CC(=O)N2CCc3c(cccc3Nc3ccc(C(F)(F)F)c(F)c3)C2)N1` (centres unmarked) [Compound O-0197, 5-(2-(5-((3-fluoro-4-(trifluoromethyl)phenyl)amino)-3,4-dihydroisoquinolin-2(1H)-yl)-2-oxoethyl)imidazolidine-2,4-dione] was 0.001 to 10 µM.
The value for `CN1CCN(CCCS(=O)(=O)N2CCc3c(cccc3Nc3ccc(C(F)(F)F)cc3)C2)CC1` [Compound O-0198, 2-((3-(4-methylpiperazin-1-yl)propyl)sulfonyl)-N-(4-(trifluoromethyl)phenyl)-1,2,3,4-tetrahydroisoquinolin-5-amine] was 0.001 to 10 µM; that for `O=C1NS(=O)(=O)c2cc(C(=O)N3CCc4c(cccc4Nc4ccc(C(F)(F)F)cc4)C3)ccc21` [Compound O-0199, 6-(5-((4-(trifluoromethyl)phenyl)amino)-1,2,3,4-tetrahydroisoquinoline-2-carbonyl)benzo[d]isothiazol-3(2H)-one 1,1-dioxide] was 0.001 to 10 µM.
Turning to `CNS(=O)(=O)c1cccc(C(=O)N2CCc3c(cccc3Nc3ccc(C(F)(F)F)cc3)C2)c1` [Compound O-0200, N-methyl-3-(5-((4-(trifluoromethyl)phenyl)amino)-1,2,3,4-tetrahydroisoquinoline-2-carbonyl)benzenesulfonamide], the concentration for half-maximal inhibition (IC50) was 0.001 to 10 µM.
Turning to `CS(=O)(=O)c1cc(C(=O)N2CCc3c(cccc3Nc3ccc(C(F)(F)F)cc3)C2)ccn1` [Compound O-0201, (2-(methylsulfonyl)pyridin-4-yl)(5-((4-(trifluoromethyl)phenyl)amino)-3,4-dihydroisoquinolin-2(1H)-yl)methanone], the IC50 was in the range of 0.001 to 10 µM.
As to `CS(=O)(=O)c1cccc(C(=O)N2CCc3c(cccc3Nc3ccc(C(F)(F)F)cc3)C2)c1` [Compound O-0202, (3-(methylsulfonyl)phenyl)(5-((4-(trifluoromethyl)phenyl)amino)-3,4-dihydroisoquinolin-2(1H)-yl)methanone], the IC50 lay within 0.001 to 10 µM.
Then `N=C(N)N1CCC(C(=O)N2CCc3c(cccc3Nc3ccc(C(F)(F)F)cn3)C2)C1` (centres unmarked) [Compound O-0203, 3-(5-((5-(trifluoromethyl)pyridin-2-yl)amino)-1,2,3,4-tetrahydroisoquinoline-2-carbonyl)pyrrolidine-1-carboximidamide], with 0.001 to 10 µM; and `O=C(CCS(=O)(=O)C(F)(F)F)N1CCc2cc(Nc3ccc(C(F)(F)F)cc3)ccc2C1` [Compound O-0205, 1-(6-((4-(trifluoromethyl)phenyl)amino)-3,4-dihydroisoquinolin-2(1H)-yl)-3-((trifluoromethyl)sulfonyl)propan-1-one], with 0.001 to 10 µM; and `O=C(C1CS(=O)(=O)C1)N1CCc2cc(Nc3ccc(C(F)(F)F)cc3)ccc2C1` [Compound O-0207, (1,1-dioxidothietan-3-yl)(6-((4-(trifluoromethyl)phenyl)amino)-3,4-dihydroisoquinolin-2(1H)-yl)methanone], with 0.001 to 10 µM.
Turning to `O=C(C1CCS(=O)(=O)CC1)N1CCc2cc(Nc3ccc(C(F)(F)F)cc3)ccc2C1` [Compound O-0208, (1,1-dioxidotetrahydro-2H-thiopyran-4-yl)(6-((4-(trifluoromethyl)phenyl)amino)-3,4-dihydroisoquinolin-2(1H)-yl)methanone], the IC50 fell in the range of 0.001 to 10 µM.
